Measured values reported in the Kinase Knowledgebase extract (Sharma et al. 2016).

Target: ROCK2 (human) (UniProt O75116)
Assay: Inhibition of ROCK2 Kinase Activity

ROCK2 (human), sequence (O75116 whole entry, looked up): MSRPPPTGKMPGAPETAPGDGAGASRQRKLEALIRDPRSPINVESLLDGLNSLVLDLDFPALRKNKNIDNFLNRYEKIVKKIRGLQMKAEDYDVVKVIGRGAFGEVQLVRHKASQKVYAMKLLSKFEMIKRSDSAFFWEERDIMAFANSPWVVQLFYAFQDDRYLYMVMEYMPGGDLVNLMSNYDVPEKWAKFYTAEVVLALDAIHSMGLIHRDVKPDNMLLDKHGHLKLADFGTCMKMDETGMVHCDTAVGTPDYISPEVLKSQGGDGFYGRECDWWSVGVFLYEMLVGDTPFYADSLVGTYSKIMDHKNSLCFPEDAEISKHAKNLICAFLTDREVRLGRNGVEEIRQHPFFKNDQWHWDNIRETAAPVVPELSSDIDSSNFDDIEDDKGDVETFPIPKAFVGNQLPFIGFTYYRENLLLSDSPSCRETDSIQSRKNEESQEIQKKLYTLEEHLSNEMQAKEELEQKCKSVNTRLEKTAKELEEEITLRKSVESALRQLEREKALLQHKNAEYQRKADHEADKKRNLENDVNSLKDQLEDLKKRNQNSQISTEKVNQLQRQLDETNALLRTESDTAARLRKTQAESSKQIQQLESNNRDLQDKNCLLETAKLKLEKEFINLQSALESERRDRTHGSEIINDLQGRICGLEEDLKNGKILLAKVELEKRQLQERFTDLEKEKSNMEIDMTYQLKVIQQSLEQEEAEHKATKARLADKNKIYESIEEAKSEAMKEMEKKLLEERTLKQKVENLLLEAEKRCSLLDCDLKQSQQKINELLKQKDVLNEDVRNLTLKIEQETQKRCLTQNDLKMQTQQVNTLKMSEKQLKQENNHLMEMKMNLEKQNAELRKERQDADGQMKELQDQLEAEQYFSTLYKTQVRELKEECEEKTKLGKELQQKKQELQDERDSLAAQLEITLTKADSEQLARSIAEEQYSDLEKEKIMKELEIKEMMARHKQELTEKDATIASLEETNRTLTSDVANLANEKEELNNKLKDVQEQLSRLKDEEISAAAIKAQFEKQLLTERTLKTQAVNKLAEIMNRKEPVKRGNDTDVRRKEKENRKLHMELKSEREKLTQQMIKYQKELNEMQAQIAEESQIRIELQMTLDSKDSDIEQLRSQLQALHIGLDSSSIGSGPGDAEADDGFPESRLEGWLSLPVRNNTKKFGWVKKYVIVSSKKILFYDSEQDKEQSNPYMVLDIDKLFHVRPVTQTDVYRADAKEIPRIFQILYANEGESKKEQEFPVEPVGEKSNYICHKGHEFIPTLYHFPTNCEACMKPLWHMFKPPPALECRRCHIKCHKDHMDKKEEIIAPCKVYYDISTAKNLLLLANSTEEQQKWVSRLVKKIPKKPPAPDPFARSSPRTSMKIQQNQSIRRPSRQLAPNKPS

SMILES | IC50 [µM]
CC(=O)c1ccccc1C(=O)NCc1nc(-c2ccncc2)n[nH]1 | > 5
CC(C(=O)NCc1nc(-c2c[nH]c3ncccc23)n[nH]1)c1ccc(O)cc1 (stereo not given) | > 5
O=C(NCc1nc(-c2ccncc2)n[nH]1)c1ccncc1Cl | > 5
CC(C)(C)OC(=O)N1CCCCC1C(=O)NCc1nc(-c2c[nH]c3ncccc23)n[nH]1 (stereo not given) | > 5
CC(NC(=O)OC(C)(C)C)C(=O)NCc1nc(-c2c[nH]c3ncccc23)n[nH]1 (stereo not given) | > 5
CC(C)(C)OC(=O)N1CCCC1C(=O)NCc1nc(-c2ccncc2)n[nH]1 (stereo not given) | > 5
CC(C)(C)OC(=O)N1CCNC(C(=O)NCc2nc(-c3c[nH]c4ncccc34)n[nH]2)C1 (stereo not given) | > 5
CC(C)(C)OC(=O)NCC[C@H](NC(=O)c1ccc(O)cc1O)c1nc(-c2ccncc2)n[nH]1 | ≤ 5
c1ccc2c(NCc3nc(-c4ccncc4)n[nH]3)ncnc2c1 | > 5
O=C(NCc1nc(-c2ccncc2)n[nH]1)c1ccc(Cl)c([N+](=O)[O-])c1 | > 5
O=C(Cc1ccc(O)c(F)c1)NCc1nc(-c2c[nH]c3ncccc23)n[nH]1 | > 5
O=C(NCc1nc(-c2ccncc2)n[nH]1)c1c(F)cccc1Cl | > 5
Cn1cnc(C(=O)NCc2nc(-c3c[nH]c4ncccc34)n[nH]2)c1 | > 5
O=C(NCc1nc(-c2ccncc2)c[nH]1)c1cccs1 | ≤ 5
O=Cc1ccc(C(=O)NCc2nc(-c3c[nH]c4ncccc34)n[nH]2)cc1 | > 5
CC(C)(C)OC(=O)NCC(=O)NCc1nc(-c2c[nH]c3ncccc23)n[nH]1 | > 5
CCc1cccc(C(=O)NCc2nc(-c3ccncc3)n[nH]2)c1O | ≤ 5
CC(C)CC(=O)NCc1nc(-c2c[nH]c3ncccc23)n[nH]1 | > 5
CC(NC(=O)c1ccc(O)cc1O)c1nc(-c2ccncc2)n[nH]1 (stereo not given) | ≤ 5
COc1ccc(NC(=O)NCc2nc(-c3ccncc3)n[nH]2)c(OC)c1 | > 5
O=C(NCc1nc(-c2ccncc2)n[nH]1)c1ccc(Br)cc1 | > 5
O=C(NCc1nc(-c2ccncc2)n[nH]1)c1cc([N+](=O)[O-])ccc1O | > 5
O=C(CCc1ccccc1Br)NCc1nc(-c2ccncc2)n[nH]1 | > 5
Cn1nc(-c2ccncc2)nc1CNC(=O)c1cccs1 | > 5
CC(C)(C)OC(=O)N1Cc2ccccc2CC1C(=O)NCc1nc(-c2ccncc2)n[nH]1 (stereo not given) | > 5

SMILES | IC50 [µM]
Cc1ccc(C(=O)NCc2nc(-c3ccncc3)n[nH]2)cc1F | > 5
Cc1nc(Br)sc1C(=O)NCc1nc(-c2c[nH]c3ncccc23)n[nH]1 | > 5
O=C(C=Cc1ccccc1Cl)NCc1nc(-c2ccncc2)n[nH]1 | > 5
Cc1cc(C(=O)NCc2nc(-c3c[nH]c4ncccc34)n[nH]2)ccc1Br | > 5
COc1ccc(C(=O)NCc2nc(-c3c[nH]c4ncccc34)n[nH]2)c(OC)c1OC | > 5
O=C(NCc1nc(-c2ccncc2)n[nH]1)c1ccc2cccc(O)c2n1 | > 5
Cc1cccc(C(=O)NCc2nc(-c3c[nH]c4ncccc34)n[nH]2)c1[N+](=O)[O-] | > 5
O=C(NCc1nc(-c2c[nH]c3ncccc23)n[nH]1)c1cccc(O)c1 | > 5
CC(C)C(C(=O)NCc1nc(-c2c[nH]c3ncccc23)n[nH]1)N(C)C(=O)OC(C)(C)C (stereo not given) | > 5
CC(NC(=O)c1cccs1)c1nc(-c2ccncc2)n[nH]1 (stereo not given) | ≤ 5
O=C(NCc1nc(-c2c[nH]c3ncccc23)n[nH]1)C(F)(F)F | > 5
O=C(NCc1nc(-c2ccncc2)n[nH]1)c1cc(Cl)c(O)c(Cl)c1 | > 5
COc1cc(C(=O)NCc2nc(-c3ccncc3)n[nH]2)cc(OC)c1O | > 5
CCC(=O)C(=O)NCc1nc(-c2c[nH]c3ncccc23)n[nH]1 | > 5
O=C(NCc1nc(-c2ccncc2)n[nH]1)c1ccccn1 | > 5
N#Cc1cccc(C(=O)NCc2nc(-c3ccncc3)n[nH]2)c1 | > 5
Cc1cccc(C(=O)NCc2nc(-c3ccncc3)n[nH]2)c1O | ≤ 5
O=C(NCc1nc(-c2ccncc2)c[nH]1)c1ccc(O)cc1O | ≤ 5
O=C(NCc1nc(-c2ccncc2)n[nH]1)c1ccc(Oc2ccccc2)cc1 | ≤ 5
Cc1ccc(O)c(C(=O)NCc2nc(-c3ccncc3)n[nH]2)c1 | > 5
CN(Cc1nc(-c2ccncc2)n[nH]1)C(=O)c1ccc(O)cc1O | > 5
O=C(NCc1nc(-c2ccncc2)n[nH]1)c1cc2ccccc2s1 | ≤ 5
CCN(CC)c1ccc(C(=O)NCc2nc(-c3ccncc3)n[nH]2)cc1 | > 5
O=C(C=Cc1ccccc1F)NCc1nc(-c2ccncc2)n[nH]1 | > 5
O=C(Cc1ccc(O)c(F)c1)NCc1nc(-c2ccncc2)n[nH]1 | > 5

SMILES | IC50 [µM]
O=C(NCc1nc(-c2ccncc2)n[nH]1)C1CCc2ccccc2C1 (stereo not given) | > 5
O=C(NCc1nc(-c2ccncc2)n[nH]1)c1ncc[nH]1 | > 5
N#Cc1ccc(C(=O)NCc2nc(-c3ccncc3)n[nH]2)cc1 | > 5
O=C(NCc1ncc(-c2ccncc2)s1)c1cccs1 | > 5
Cc1ccc(C(=O)NCc2nc(-c3ccncc3)n[nH]2)s1 | ≤ 5
O=C(C=Cc1ccccc1F)NCc1nc(-c2c[nH]c3ncccc23)n[nH]1 | > 5
CC(C)C(C(=O)NCc1nc(-c2ccncc2)n[nH]1)N(C)C(=O)OC(C)(C)C (stereo not given) | > 5
O=C(NCc1nc(-c2ccncc2)n[nH]1)c1ccc2ccccc2c1O | ≤ 5
COc1ccc(Br)c(C(=O)NCc2nc(-c3ccncc3)n[nH]2)c1 | > 5
CC(O)C(=O)NCc1nc(-c2c[nH]c3ncccc23)n[nH]1 (stereo not given) | > 5
O=C(NCc1nc(-c2ccncc2)n[nH]1)c1cccc(F)c1F | > 5
O=C(NCc1nc(-c2ccncc2)n[nH]1)c1ccccc1OCc1ccccc1 | > 5
CS(=O)(=O)Nc1ccccc1C(=O)NCc1nc(-c2ccncc2)n[nH]1 | > 5
O=C(NCc1c[nH]c(-c2ccncc2)n1)c1cccs1 | > 5
O=C(NCc1nc(-c2c[nH]c3ncccc23)n[nH]1)C1=CCCC1 | > 5
CC(=O)NCc1nc(-c2c[nH]c3ncccc23)n[nH]1 | > 5
COc1ccc(C(=O)NCc2nc(-c3ccncc3)n[nH]2)c(O)c1 | ≤ 5
O=C(NCc1nc(-c2c[nH]c3ncccc23)n[nH]1)c1c(F)c(F)c(F)c(F)c1F | > 5
Cc1cccc(C(=O)NCc2nc(-c3ccncc3)c[nH]2)c1O | ≤ 5
Cc1cc(C)c(C(=O)NCc2nc(-c3ccncc3)n[nH]2)c(C)c1 | > 5
CN(C=O)c1ccc(C(=O)NCc2nc(-c3ccncc3)n[nH]2)cc1 | > 5
CC(C)Cc1ccc(C(C)C(=O)NCc2nc(-c3c[nH]c4ncccc34)n[nH]2)cc1 (stereo not given) | > 5
COc1cc(OC)c(C(=O)NCc2nc(-c3ccncc3)n[nH]2)c(OC)c1 | > 5
CC(C)c1cc(C(=O)NCc2nc(-c3ccncc3)n[nH]2)c(O)c(C(C)C)c1 | > 5
O=C(NCc1nc(-c2c[nH]c3ncccc23)n[nH]1)c1ccc(-c2ccc(O)cc2)cc1 | > 5

The next lines start with the values.

IC50 [µM] | SMILES
> 5 | Cc1c(C(=O)NCc2nc(-c3c[nH]c4ncccc34)n[nH]2)cccc1[N+](=O)[O-]
> 5 | O=C(NCc1nc(-c2c[nH]c3ncccc23)n[nH]1)c1cccc(Cl)c1Cl
> 5 | CCCOc1ccc(C(=O)NCc2nc(-c3c[nH]c4ncccc34)n[nH]2)cc1
> 5 | Cc1ccccc1CCC(=O)NCc1nc(-c2ccncc2)n[nH]1
> 5 | COc1cccc(C(=O)NCc2nc(-c3c[nH]c4ncccc34)n[nH]2)c1OC
≤ 5 | CC(=O)Oc1ccc(C(=O)NCc2nc(-c3ccncc3)n[nH]2)cc1
> 5 | O=C(NCc1nc(-c2ccncc2)n[nH]1)C1CCCO1 (stereo not given)
> 5 | O=C(Cc1c(F)cccc1F)NCc1nc(-c2c[nH]c3ncccc23)n[nH]1
> 5 | O=C(NCc1nc(-c2ccncc2)n[nH]1)C(F)(F)F
> 5 | CC(C)C(NC(=O)OC(C)(C)C)C(=O)NCc1nc(-c2ccncc2)n[nH]1 (stereo not given)
> 5 | Cc1cccc([N+](=O)[O-])c1C(=O)NCc1nc(-c2c[nH]c3ncccc23)n[nH]1
> 5 | COc1cc(C(=O)NCc2nc(-c3ccncc3)n[nH]2)cc(Cl)n1
> 5 | O=C(NCc1nc(-c2ccncc2)n[nH]1)c1cccc2ccccc12
> 5 | Cc1cccc(C(=O)NCc2nc(-c3c[nH]c4ncccc34)n[nH]2)c1
> 5 | O=C(NCc1nc(-c2ccncc2)n[nH]1)c1cc([N+](=O)[O-])ccc1Cl
> 5 | O=C(NCc1nc(-c2c[nH]c3ncccc23)n[nH]1)c1cc2cc(Cl)ccc2o1
≤ 5 | O=C(NCc1nc(-c2ccncc2)n[nH]1)c1ccc(Oc2cccc(O)c2)cc1
> 5 | O=C(NCc1nc(-c2c[nH]c3ncccc23)n[nH]1)c1cc2ccccc2s1

IC50 [µM] | SMILES
> 5 | O=C(NCc1nc(-c2ccncc2)n[nH]1)c1ccccc1C(F)(F)F
> 5 | COc1ccc(OC)c(C(=O)NCc2nc(-c3ccncc3)n[nH]2)c1
> 5 | CCOc1ccccc1C(=O)NCc1nc(-c2ccncc2)n[nH]1
> 5 | CCCCCCCC(=O)NCc1nc(-c2ccncc2)n[nH]1
> 5 | O=C(NCc1nc(-c2ccncc2)n[nH]1)c1ccncc1-c1ccccc1
≤ 5 | O=C(NCc1nc(-c2ccncc2)n[nH]1)c1nccs1
> 5 | O=C(NCc1nc(-c2ccncc2)n[nH]1)c1cc(Br)ccc1Cl
> 5 | CC(=O)NC(Cc1ccc(O)cc1)C(=O)NCc1nc(-c2ccncc2)n[nH]1 (stereo not given)
> 5 | Cc1cccc(C(=O)NCc2nc(-c3c[nH]c4ncccc34)n[nH]2)c1C
> 5 | Cc1cc(C(=O)NCc2nc(-c3c[nH]c4ncccc34)n[nH]2)cc(Cl)n1
≤ 5 | COc1cccc(C(=O)NCc2nc(-c3c[nH]c4ncccc34)cs2)c1
> 5 | CC(C(=O)NCc1nc(-c2ccncc2)n[nH]1)c1ccc(-c2ccccc2)c(F)c1 (stereo not given)
> 5 | COc1cccc(OC)c1C(=O)NCc1nc(-c2ccncc2)n[nH]1
≤ 5 | CC(=O)c1ccc(C(=O)NCc2nc(-c3c[nH]c4ncccc34)n[nH]2)cc1
> 5 | COc1cc(C(=O)NCc2nc(-c3c[nH]c4ncccc34)n[nH]2)c([N+](=O)[O-])cc1OC
> 5 | CCOc1ccc2ccccc2c1C(=O)NCc1nc(-c2c[nH]c3ncccc23)n[nH]1
≤ 5 | O=C(NCc1c[nH]c(-c2ccncc2)n1)c1ccc(O)cc1O
